In PMC2833169, “Anti-malarial activity of a non-piperidine library of next-generation quinoline methanols” (Malaria Journal, 2010):
pIC50: −log10 of the molar value. Values after ≈ are worked out from the molar mass of the structure shown. Read-outs that look alike come from different tables or passages of the source.

Columns and labels:
P. falciparum strain W2 = assay: labeled hypoxanthine susceptibility assay, P. falciparum W2; assay type: cell-based, Plasmodium falciparum; conditions: Plasmodium falciparum
Method: (§1) The in vitro activities of quinoline methanols against P. falciparum strains W2, D6, TM91C235, and TM90C2A were evaluated using the traditional labeled hypoxanthine assay of Desjardins et al as modified by Milhous et al. These four P. falciparum strains were selected since they have various levels of resistance to conventional anti-malarials.

P. falciparum strain D6 = assay: labeled hypoxanthine susceptibility assay, P. falciparum D6; assay type: cell-based, Plasmodium falciparum; conditions: Plasmodium falciparum
Method: as §1

[1] = test system: P. falciparum strain TM91C235; assay: labeled hypoxanthine susceptibility assay, P. falciparum TM91C235; assay type: cell-based, Plasmodium falciparum; conditions: Plasmodium falciparum
Method: as §1

[2] = test system: P. falciparum strain TM90C2A; assay: labeled hypoxanthine susceptibility assay, P. falciparum TM90C2A; assay type: cell-based, Plasmodium falciparum
Method: as §1

[3] = test system: rodent macrophage (RAW) cell line; assay: cells; conditions: Mus musculus, Macrophage, read-out: Macrophage IC50
Method: (§2) General cytotoxicity was assessed by first determining LC50 's against a rodent macrophage (RAW) cell line using the 3-(4,5-dimethylthiazole-2-yl)-2,5-diphenyltetrazolium bromide (MTT) assay as described in one of our earlier studies. This screen was conducted to identify compounds that may require de-selection due to generalized toxicity. […] In vitro neurocytotoxicity was assessed by determining LC50s against primary mouse neurons using the MTT assay as described previously. Inhibition of the A2A and A1 receptors was determined at 200 nM in duplicate by Caliper Biosciences (Hanover, Maryland).

in vitro [4] = conditions: mouse
Method: as §2

[5] = metabolic stability in mouse liver microsomes; assay type: in vitro ADME; conditions: for half-life at 1 μM: pH 7.4, mouse liver microsomes, read-out: Half-life in mouse micro
Method: (§3) Interesting compounds were also submitted for drug-drug interaction and metabolic stability assays. Low IC50s against specific cytochrome P450 isoforms may indicate the potential for a harmful drug interaction to occur in vivo with substrates of that isoform. A lack of metabolic stability in vitro may indicate potential metabolic instability in vivo, and, therefore, a shorter half-life. Drug interaction potential was evaluated in vitro using BD Gentest (Franklin Lakes, NJ) CYP450 inhibition kits as recommended by the manufacturer. Metabolic stability assessments were conducted using in vitro liver microsomes. […] The reaction is started with the addition of 1 U/mL glucose-6-phosphate dehydrogenase G6PD. The mixture is incubated on a shaking platform at 37°C, and aliquots are taken and quenched with the addition of an equal volume of cold acetonitrile at 0, 10, 20, 30, and 60 min. Samples are centrifuged at 3700 rpm for […] at 20°C to remove debris. Sample quantification is carried out by LC/MS, and metabolic half-life is calculated by log plots of the total ion chromatograph area remaining.

CYP450 1A2 = target: T1, CYP450 1A2 (Homo sapiens, UniProt P05177); assay: CYP450 inhibition kit (drug-drug interaction), 1A2; assay type: biochemical
T1 construct: purchased BD Gentest (Franklin Lakes, NJ)
T1 sequence (P05177 1-516): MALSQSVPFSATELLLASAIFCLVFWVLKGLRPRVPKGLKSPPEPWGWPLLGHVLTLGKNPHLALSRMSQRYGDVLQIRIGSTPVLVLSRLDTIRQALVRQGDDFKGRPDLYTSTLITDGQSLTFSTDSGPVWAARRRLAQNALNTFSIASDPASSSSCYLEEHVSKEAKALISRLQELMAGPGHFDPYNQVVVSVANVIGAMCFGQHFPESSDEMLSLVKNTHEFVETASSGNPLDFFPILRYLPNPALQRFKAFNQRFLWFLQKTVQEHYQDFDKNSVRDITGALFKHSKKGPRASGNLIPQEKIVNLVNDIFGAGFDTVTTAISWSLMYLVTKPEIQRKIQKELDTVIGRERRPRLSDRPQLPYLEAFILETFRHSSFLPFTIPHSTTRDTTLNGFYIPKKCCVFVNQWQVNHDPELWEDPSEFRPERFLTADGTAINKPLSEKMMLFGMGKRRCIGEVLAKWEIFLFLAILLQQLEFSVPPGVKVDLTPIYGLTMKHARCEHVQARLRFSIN
Method: as §3, with “Low” for “Interesting compounds were also submitted for drug-drug interaction and metabolic stability assays. Low”

CYP450 2C9 = target: T2, CYP450 2C9 (Homo sapiens, UniProt P11712); assay: CYP450 inhibition kit (drug-drug interaction), 2C9; assay type: biochemical
T2 construct: purchased BD Gentest (Franklin Lakes, NJ)
T2 sequence (P11712 whole entry): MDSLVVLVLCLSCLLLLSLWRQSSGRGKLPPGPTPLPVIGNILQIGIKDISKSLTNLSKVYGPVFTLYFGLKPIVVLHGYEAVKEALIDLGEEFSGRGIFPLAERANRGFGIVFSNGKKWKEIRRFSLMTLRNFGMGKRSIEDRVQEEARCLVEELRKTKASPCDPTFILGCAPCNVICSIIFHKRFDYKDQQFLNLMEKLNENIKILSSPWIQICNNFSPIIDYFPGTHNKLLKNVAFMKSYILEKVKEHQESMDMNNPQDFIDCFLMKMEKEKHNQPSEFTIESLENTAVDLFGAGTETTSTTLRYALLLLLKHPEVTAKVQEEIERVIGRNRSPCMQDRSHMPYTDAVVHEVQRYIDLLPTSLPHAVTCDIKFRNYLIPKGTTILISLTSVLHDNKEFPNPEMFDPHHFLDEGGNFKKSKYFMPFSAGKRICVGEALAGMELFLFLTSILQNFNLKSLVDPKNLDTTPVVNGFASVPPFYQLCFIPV
Method: as §3, with “Low” for “Interesting compounds were also submitted for drug-drug interaction and metabolic stability assays. Low”

CYP450 2C19 = target: T3, CYP450 2C19 (Homo sapiens, UniProt P33261); assay: CYP450 inhibition kit (drug-drug interaction), 2C19; assay type: biochemical
T3 construct: purchased BD Gentest (Franklin Lakes, NJ)
T3 sequence (P33261 whole entry): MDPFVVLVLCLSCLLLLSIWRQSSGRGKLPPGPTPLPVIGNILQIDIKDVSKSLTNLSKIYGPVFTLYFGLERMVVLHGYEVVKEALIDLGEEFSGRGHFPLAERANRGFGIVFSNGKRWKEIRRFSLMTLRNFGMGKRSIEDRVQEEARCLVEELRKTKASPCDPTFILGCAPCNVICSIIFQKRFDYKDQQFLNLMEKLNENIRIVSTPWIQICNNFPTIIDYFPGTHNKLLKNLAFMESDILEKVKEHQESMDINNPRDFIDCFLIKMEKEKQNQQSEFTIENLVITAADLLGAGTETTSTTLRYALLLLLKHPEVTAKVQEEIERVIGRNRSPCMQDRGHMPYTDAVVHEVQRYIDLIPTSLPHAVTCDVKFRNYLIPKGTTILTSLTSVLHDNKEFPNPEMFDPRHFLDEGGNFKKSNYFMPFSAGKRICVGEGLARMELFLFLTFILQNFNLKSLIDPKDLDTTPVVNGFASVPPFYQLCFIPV
Method: as §3, with “Low” for “Interesting compounds were also submitted for drug-drug interaction and metabolic stability assays. Low”

CYP450 2D6 = target: T4, CYP450 2D6 (Homo sapiens, UniProt P10635); assay: CYP450 inhibition kit (drug-drug interaction), 2D6; assay type: biochemical
T4 construct: purchased BD Gentest (Franklin Lakes, NJ)
T4 sequence (P10635 whole entry): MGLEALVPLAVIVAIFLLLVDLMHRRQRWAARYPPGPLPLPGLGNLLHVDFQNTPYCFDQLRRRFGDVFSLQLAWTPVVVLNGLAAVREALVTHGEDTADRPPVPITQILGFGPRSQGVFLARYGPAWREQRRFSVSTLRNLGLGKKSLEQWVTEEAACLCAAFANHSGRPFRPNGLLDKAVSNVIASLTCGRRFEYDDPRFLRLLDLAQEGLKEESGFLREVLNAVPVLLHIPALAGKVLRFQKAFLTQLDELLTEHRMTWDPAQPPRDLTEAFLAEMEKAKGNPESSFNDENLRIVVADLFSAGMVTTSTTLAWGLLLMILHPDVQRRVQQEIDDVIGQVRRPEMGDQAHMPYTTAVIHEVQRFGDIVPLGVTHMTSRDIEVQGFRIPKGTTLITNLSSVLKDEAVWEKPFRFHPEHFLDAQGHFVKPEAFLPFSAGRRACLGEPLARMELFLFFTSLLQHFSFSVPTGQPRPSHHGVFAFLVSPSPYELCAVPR
Method: as §3, with “Low” for “Interesting compounds were also submitted for drug-drug interaction and metabolic stability assays. Low”

CYP450 3A4 = target: T5, CYP450 3A4 (Homo sapiens, UniProt P08684); assay: CYP450 inhibition kit (drug-drug interaction), 3A4; assay type: biochemical
T5 construct: purchased BD Gentest (Franklin Lakes, NJ)
T5 sequence (P08684 whole entry): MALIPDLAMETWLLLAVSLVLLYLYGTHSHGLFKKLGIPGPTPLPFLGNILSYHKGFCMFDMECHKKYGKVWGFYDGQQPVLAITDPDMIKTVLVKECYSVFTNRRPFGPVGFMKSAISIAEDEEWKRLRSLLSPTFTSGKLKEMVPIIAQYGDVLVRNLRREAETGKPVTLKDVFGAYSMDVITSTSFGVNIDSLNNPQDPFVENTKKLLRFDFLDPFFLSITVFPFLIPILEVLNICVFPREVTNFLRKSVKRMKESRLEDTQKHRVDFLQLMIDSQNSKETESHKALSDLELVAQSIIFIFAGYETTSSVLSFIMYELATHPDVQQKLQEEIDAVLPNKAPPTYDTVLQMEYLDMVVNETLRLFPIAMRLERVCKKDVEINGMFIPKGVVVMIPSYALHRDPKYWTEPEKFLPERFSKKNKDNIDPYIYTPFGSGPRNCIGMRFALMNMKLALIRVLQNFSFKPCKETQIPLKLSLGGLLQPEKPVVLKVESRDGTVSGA
Method: as §3, with “Low” for “Interesting compounds were also submitted for drug-drug interaction and metabolic stability assays. Low”

in vitro [6] = conditions: mouse; remark: listed apart in the source
Method: as §2

in vitro [7] = conditions: dog, MDCK-MDR1, pH 7.4
Method: (§4) For this reason, the apparent permeability of selected compounds across MDR1-transfected MDCK cell monolayers was determined. This assay is an in vitro surrogate of the blood-brain barrier.
(§5) Permeability was determined by Absorption Systems (Exton, PA). MDR1-MDCK cell monolayers were grown to confluence on collagen-coated, microporous, polycarbonate membranes in 12-well Costar Transwell plates. […] The permeability assay buffer was Hanks Balanced Salt Solution containing 10 mM HEPES and 15 mM glucose at a pH of 7.4. A known p-glycoprotein inhibitor cyclosporin A (CSA) was also added to the assay buffer at 10 μM. Bovine serum albumin (1%) was added to the receiver well. The dosing solution concentrations of the test compounds were 5.0 μM in the assay buffer. All cell monolayers were first pre-incubated for 30 minutes with assay buffer. After 30 minutes, the buffer was removed, replaced with fresh buffer, and time was recorded as 0. […] Cell monolayers were dosed on the apical side (A-to-B) or basolateral side (B-to-A) and incubated at 37°C with 5% CO2 in a humidified incubator. After 2 hours, aliquots were taken from the receiver chambers. Samples were taken from the donor chamber at 0 and 2 hours. Each determination was performed in duplicate. The lucifer yellow flux was also measured for each monolayer to ensure no damage was inflicted to the cell monolayers during the flux period. All samples were assayed by LC/MS/MS using electrospray ionization.
(§6) Apparent permeability in the apical (A-B direction), PappA-B, and percent recovery are reported. Apparent permeability is a measure of the rate of transport across the cell monolayer. Percent recovery refers to the amount of compound recoverable at the end of the assay. Low recovery may indicate non-specific binding to assay plates, instability or accumulation in the cell pellet.
(§7) The apparent permeability, Papp, and percent recovery were calculated as follows:
(§8) Papp = (dCr/dt) × Vr/(A × C0) (1)
(§9) Percent Recovery = 100 × ((Vr × Cr^final) + (Vd × Cd^final))/(Vd × […]) (2)

[8] = test system: MDR1-transfected MDCK cell monolayers; assay: in vitro; conditions: dog, MDCK-MDR1, 2 h, 5 μM, pH 7.4
Method: as §4, §5, §6, §7, §8, §9

[9] = D6, read-out: IC90 Pf D6, P. falciparum D6, mefloquine: historical mean +/- SD (n)
[10] = D6, read-out: PF D6 IC90, P. falciparum D6
[11] = Plasmodium falciparum, TM90C2A, read-out: IC90 Pf C2A
[12] = Plasmodium falciparum, TM90C2A, read-out: PF C2A IC90
[13] = Plasmodium falciparum, TM90C2A, read-out: Pf C2A IC90 nM values calculated using MW in Column C
[14] = Plasmodium falciparum, TM90C2A; read-out: IC90 PfC2A

## CC(C)CC(C)NCC(O)c1cc(C(F)(F)F)nc2c(C(F)(F)F)cccc12 (centres unmarked) [WR308413]
P. falciparum strain W2; W2, read-out: IC90 Pf W2
  IC90: 0.0011 µg/mL (≈ 0.00269 µM)
P. falciparum strain W2; W2, read-out: PF W2 IC90
  IC90: 0.001 µg/mL (≈ 0.00245 µM)
P. falciparum strain D6; [9]
  IC90: 0.012 µg/mL (≈ 0.0294 µM)
P. falciparum strain D6; [10]
  IC90: 0.0116 µg/mL (≈ 0.0284 µM)
[1]; read-out: IC90 Pf C235
  IC90: 0.015 µg/mL (≈ 0.0367 µM)
[1]; read-out: PF C235 IC90
  IC90: 0.0147 µg/mL (≈ 0.036 µM)
[2]; [11]
  IC90: 0.0075 µg/mL
[2]; [12]
  IC90: 0.00748 µg/mL
[2]; [13]
  IC90: 18 nM
[2]; [14]
  IC90: 171 nM
[2]; ratio of IC90 C2A to IC90 W2
  CSI (C2A/W2): 7.5
[3]
  pIC50: 5.07
In vitro [4]
  CC50: > 120 µM
[5]
  half-life at 1 μM: 19 min
CYP450 1A2
  pIC50: 4.59
CYP450 2C9
  pIC50: 4.72
CYP450 2C19
  pIC50: 5.24
CYP450 2D6
  pIC50: 6.00
CYP450 3A4
  pIC50: < 4.40

## CCC(CC)CNCC(O)c1cc(C(F)(F)F)nc2c(C(F)(F)F)cccc12 (centres unmarked) [WR308388]
P. falciparum strain W2; W2, read-out: IC90 Pf W2
  IC90: 0.0011 µg/mL (≈ 0.00269 µM)
P. falciparum strain W2; W2, read-out: PF W2 IC90
  IC90: 0.00112 µg/mL (≈ 0.00274 µM)
P. falciparum strain D6; [9]
  IC90: 0.0067 µg/mL (≈ 0.0164 µM)
P. falciparum strain D6; [10]
  IC90: 0.00671 µg/mL (≈ 0.0164 µM)
[1]; read-out: IC90 Pf C235
  IC90: 0.011 µg/mL (≈ 0.0269 µM)
[1]; read-out: PF C235 IC90
  IC90: 0.0109 µg/mL (≈ 0.0267 µM)
[2]; [11]
  IC90: 0.01 µg/mL
[2]; [12]
  IC90: 0.0102 µg/mL
[2]; [14]
  IC90: 23 nM
[2]; ratio of IC90 C2A to IC90 W2
  CSI (C2A/W2): 9.1
[3]
  pIC50: 4.80
In vitro [4]
  CC50: 56 µM
[5]
  half-life at 1 μM: 16 min
CYP450 1A2
  pIC50: 5.92
CYP450 2C9
  pIC50: 4.89
CYP450 2C19
  pIC50: 5.47
CYP450 2D6
  pIC50: 6.10
CYP450 3A4
  pIC50: 4.48

## OC(CNC1CCC1)c1cc(C(F)(F)F)nc2c(C(F)(F)F)cccc12 (centres unmarked) [WR308266]
P. falciparum strain W2; W2, read-out: IC90 Pf W2
  IC90: 0.0061 µg/mL (≈ 0.0161 µM)
P. falciparum strain W2; W2, read-out: PF W2 IC90
  IC90: 0.00609 µg/mL (≈ 0.0161 µM)
P. falciparum strain D6; [9]
  IC90: 0.025 µg/mL (≈ 0.0661 µM)
P. falciparum strain D6; [10]
  IC90: 0.0245 µg/mL (≈ 0.0647 µM)
[1]; read-out: IC90 Pf C235
  IC90: 0.024 µg/mL (≈ 0.0634 µM)
[1]; read-out: PF C235 IC90
  IC90: 0.0243 µg/mL (≈ 0.0643 µM)
[2]; [11]
  IC90: 0.052 µg/mL
[2]; Plasmodium falciparum, TM90C2A, read-out: IC90 PfC2A
  IC90: 137 nM
[2]; [12]
  IC90: 0.0517 µg/mL
[2]; [13]
  IC90: 137 nM
[2]; ratio of IC90 C2A to IC90 W2
  CSI (C2A/W2): 8.5
[3]
  pIC50: 4.88
In vitro [4]
  CC50: 59 µM
[5]
  half-life at 1 μM: 22 min
CYP450 1A2
  pIC50: 5.62
CYP450 2C9
  pIC50: 4.92
CYP450 2C19
  pIC50: 5.12
CYP450 2D6
  pIC50: 5.85
CYP450 3A4
  pIC50: 5.24

## CCCCNCC(O)c1cc(C(F)(F)F)nc2c(C(F)(F)F)cccc12 (racemic) [WR177000]
P. falciparum strain W2; W2, read-out: IC90 Pf W2
  IC90: 0.0017 µg/mL (≈ 0.00447 µM)
P. falciparum strain D6; [9]
  IC90: 0.0067 µg/mL (≈ 0.0176 µM)
[1]; read-out: IC90 Pf C235
  IC90: 0.0089 µg/mL (≈ 0.0234 µM)
[2]; [11]
  IC90: 0.0123 µg/mL
[2]; [14]
  IC90: 32 nM
In vitro [6]
  CC50: 2.78 µg/mL (≈ 7.31 µM)
In vitro [7]
  Papp A→B at 2 h, 5 μM: 25.4 ×10⁻⁶ cm/s
[8]
  % recovery (MDCK-MDR1 permeability assay): 58%
[5]; Figure 3, species of microsomes not given
  HL in Microsomes: 37 min
